From article PMC8400246, “Antimicrobial Activity and Action Mechanisms of Arg-Rich Short Analog Peptides Designed from the C-Terminal Loop Region of American Oyster Defensin (AOD)” (Marine Drugs, 2021)
Positions of bridges follow the written chain, without caps; N, C: chain ends. Residues, ends and D or L forms follow the SMILES beside them.

Legend:
[1] = system: B. subtilis KCTC1021; assay: Ultrasensitive radial diffusion assay (URDA), MEC; assay type: cell-based, Bacillus subtilis; conditions: B. subtilis KCTC1021, Gram +, 10 mM phosphate buffer pH 6.6, 37 °C, X-intercept of clearing zone vs log10 concentration, triplicate, averaged
Protocol: (§1) The antimicrobial activity of the AOD analogs was assessed with an ultrasensitive radial diffusion assay (URDA), as described previously. The antimicrobial activity of the analogs (from 31.3 to 1000 μg/mL, 5 μL volume) was tested against several bacteria, including Bacillus subtilis KCTC1021, Streptococcus mutans KCCM40105, Aeromonas hydrophila KCTC2358, Escherichia coli D31, E. coli ML35p, Pseudomonas aeruginosa KCTC2004, Salmonella enterica KCTC2514, and Shigella sonnei KCTC2009. In addition, Cutibacterium acnes KCTC3314, Staphylococcus epidermidis KCTC1917, and Candida albicans KCTC7965 were used for the anti-acne activity test. All except C. acnes KCTC3314 were grown overnight for 18 h in tryptic soy broth (TSB; for bacteria) or Sabouraud dextrose broth (SDB; for C. albicans) at the appropriate temperature (25 °C for A. hydrophila, 37 °C for the others). C. acnes was grown for 72 h in reinforced clostridial medium (RCM) under anaerobic conditions with an anaerobic gas-generating pouch (GasPak EZ; Becton Dickinson and Company, Sparks, MD, USA) at 37 °C. Following overnight or 72-h incubation, the bacterial and C. albicans suspensions were diluted to a McFarland turbidity standard level of 0.5 (Vitek Colorimeter #52-1210; Hach, Loveland, CO, USA) corresponding to approximately 10^8 colony forming units (CFU)/mL for bacteria and 10^6 CFU/mL for C. albicans. Diluted bacterial or C. albicans suspension (0.5 mL) was added to 9.5 mL underlay gel containing 5 × 10^6 or 5 × 10^4 CFU/mL in 10 mM phosphate buffer (pH 6.6) with 0.03% TSB (or RCM) or 0.03% SDB and 1% Type I low-electroendosmosis agarose. The AOD analogs were serially diluted two-fold in 5 µL acidified water (0.01% acetic acid; HAc) and each dilution was added to 2.5-mm diameter wells in the 1-mm thick underlay gel. After incubation for 3 h at either 25 °C (for A. hydrophila) or 37 °C (for the others), the bacterial or yeast suspension was overlaid with 10 mL double-strength overlay gel containing 6% TSB, RCM, or SDB with 10 mM phosphate buffer (pH 6.6) in 1% agarose. Plates were incubated for an additional 18–24 h (72 h for C. acnes) and the clearing zone diameters were measured. After subtracting the diameter of the well (2.5 mm), the clearing zone diameter was expressed in units (0.1 mm = 1 U).
(§2) The minimal effective concentration (MEC; μg/mL) of the AOD analogs was calculated as the X-intercept of a plot of clearing zone diameter units against the log10 of the peptide concentration. Piscidin 1, an α-helical AMP isolated from hybrid striped bass (Morone saxatilis × Morone chrysops) was used as a positive control.

[2] = system: C. acnes KCTC3314; assay: Ultrasensitive radial diffusion assay (URDA), MEC; assay type: cell-based, Cutibacterium acnes; conditions: C. acnes KCTC3314, Gram +, anaerobic, RCM, 72 h, 37 °C, triplicate, averaged
Protocol: as §1, §2

[3] = system: S. epidermidis KCTC1917; assay: Ultrasensitive radial diffusion assay (URDA), MEC; assay type: cell-based, Staphylococcus epidermidis; conditions: S. epidermidis KCTC1917, Gram +, pH 6.6, 37 °C, triplicate, averaged
Protocol: as §1, §2

[4] = system: S. mutans KCCM40105; assay: Ultrasensitive radial diffusion assay (URDA), MEC; assay type: cell-based, Streptococcus mutans; conditions: S. mutans KCCM40105, Gram +, pH 6.6, 37 °C, triplicate, averaged
Protocol: as §1, §2

[5] = system: A. hydrophila KCTC2358; assay: Ultrasensitive radial diffusion assay (URDA), MEC; assay type: cell-based, Aeromonas hydrophila; conditions: A. hydrophila KCTC2358, Gram -, pH 6.6, 25 °C, triplicate, averaged
Protocol: as §1, §2

[6] = system: E. coli D31; assay: Ultrasensitive radial diffusion assay (URDA), MEC; assay type: cell-based, Escherichia coli; conditions: E. coli D31, Gram -, pH 6.6, 37 °C, triplicate, averaged
Protocol: as §1, §2

[7] = system: E. coli ML35p; assay: Ultrasensitive radial diffusion assay (URDA), MEC; assay type: cell-based, Escherichia coli; conditions: Gram -, pH 6.6, 37 °C, triplicate, averaged
Protocol: as §1, §2

[8] = system: P. aeruginosa KCTC2004; assay: Ultrasensitive radial diffusion assay (URDA), MEC; assay type: cell-based, Pseudomonas aeruginosa; conditions: P. aeruginosa KCTC2004, Gram -, pH 6.6, 37 °C, triplicate, averaged
Protocol: as §1, §2

[9] = system: S. enterica KCTC2514; assay: Ultrasensitive radial diffusion assay (URDA), MEC; assay type: cell-based, Salmonella enterica; conditions: S. enterica KCTC2514, Gram -, pH 6.6, 37 °C, triplicate, averaged
Protocol: as §1, §2

[10] = system: S. sonnei KCTC2009; assay: Ultrasensitive radial diffusion assay (URDA), MEC; assay type: cell-based, Shigella sonnei; conditions: S. sonnei KCTC2009, Gram -, pH 6.6, 37 °C, triplicate, averaged
Protocol: as §1, §2

[11] = system: C. albicans KCTC7965; assay: Ultrasensitive radial diffusion assay (URDA), MEC; assay type: cell-based, Candida albicans; conditions: C. albicans KCTC7965, yeast, SDB, pH 6.6, 37 °C, triplicate, averaged
Protocol: as §1, §2

[12] = system: 100-bp DNA ladder; assay: DNA binding assay (electrophoretic mobility shift); conditions: 1 μg analog with 0.2 μg 100-bp DNA ladder, 37 °C, 60 min, 1.8% agarose gel with EtBr
Protocol: To evaluate the binding ability of the AOD analogs to intracellular components, a DNA binding assay was performed as previously described with minor modifications. The DNA-binding ability of the AOD analogs was assessed through observation of the inhibition of migration of DNA bands through agarose gels. A commercial 100-bp DNA ladder (0.2 μg) (Bioneer Corp., Daejeon, South Korea) was mixed with each analog (1 μg) in 0.01% acetic acid, and the resulting mixture was incubated at 37 °C for 60 min and then electrophoresed on 1.8% agarose gels containing 0.5 μg/mL ethidium bromide (EtBr). HAc (0.01%) was used as a negative control.
To determine the concentration required for the interaction of AOD analogs with DNA, a DNA binding assay was performed with various mixing ratios of analog A3 (0.25–1.0 μg/mL) and 100-bp DNA ladder (0.1–0.4 μg), as described above.

[13] = system: 100-bp DNA ladder and DNA polymerase; assay: Competitive binding between DNA and DNA polymerase; conditions: 1 μg peptide, 0.2 μg 100-bp DNA ladder, DNA polymerase 1.0 μL (5 units/μL), 37 °C, 60 min
Protocol: To assess the preferential binding ability of the AOD analogs to DNA or DNA polymerase, a competitive binding assay was performed. Briefly, AOD analog was added to a reaction mixture containing DNA or DNA polymerase and incubated for 60 min at 37 °C. […] Piscidin 1 and 0.01% HAc were the positive and negative controls, respectively.

[14] = system: E. coli DH5α genomic DNA (16S ribosomal gene); assay: DNA amplification (PCR) inhibition assay; assay type: biochemical, Escherichia coli; conditions: 1.5 µg of each analog, 0.2 µg E. coli DH5α gDNA, 30 cycles
Protocol: To determine whether AOD analogs target DNA amplification, the ability of the analogs to inhibit DNA amplification was assessed using E. coli DH5α genomic DNA (gDNA). Total gDNA was extracted using the phenol–chloroform method, as described previously. To assess the inhibition of DNA amplification, 1.5 µg AOD analog was added to the polymerase chain reaction (PCR) mixture. The PCR solution consisted of 0.2 µg purified gDNA, 5 µL 10× PCR buffer with MgCl2, 4 µL of each dNTP at 2.5 mM, 0.25 μL Ex Taq polymerase (Takara Bio, Shiga, Japan), 2.0 pmol each of primers 27F (5′-[…]-3′) and 1492R (5′-TACGGCTACCTTGTTACGA-CTT-3′), and up to 50 µL sterile distilled water. The PCR thermal cycling conditions were as follows: initial denaturation at 94 °C for 5 min; 30 cycles of 94 °C for 30 s, 55 °C for 30 s, and 72 °C for 2 min; and a final extension for 10 min at 72 °C. PCR was conducted using a Type 9700 Thermal Cycler (Perkin-Elmer, Norwalk City, CA, USA). The PCR products were confirmed through 1.5% agarose gel electrophoresis with 0.5 μg/mL EtBr. Piscidin 1 was used as a positive control and 0.01% HAc was used as a negative control.

[15] = system: V. parahaemolyticus gDNA; assay: Bacterial gDNA binding (electrophoretic mobility shift); parameters: species or system Vibrio parahaemolyticus; conditions: 1 μg of analog with V. parahaemolyticus gDNA, agarose gel
Protocol: To evaluate the binding ability of the AOD analogs to intracellular components, a DNA binding assay was performed as previously described with minor modifications. The DNA-binding ability of the AOD analogs was assessed through observation of the inhibition of migration of DNA bands through agarose gels. […] HAc (0.01%) was used as a negative control.

SMILES | Minimal Effective Concentration [1] [µg/mL] | Minimal Effective Concentration [2] [µg/mL] | Minimal Effective Concentration [3] [µg/mL] | Minimal Effective Concentration [4] [µg/mL] | Minimal Effective Concentration [5] [µg/mL] | Minimal Effective Concentration [6] [µg/mL] | Minimal Effective Concentration [7] [µg/mL] | Minimal Effective Concentration [8] [µg/mL] | Minimal Effective Concentration [9] [µg/mL] | Minimal Effective Concentration [10] [µg/mL] | Minimal Effective Concentration [11] [µg/mL] | electrophoretic mobility of the DNA (DNA-binding ability) [12] | competitive binding between DNA and DNA polymerase (electrophoretic mobility of DNA) [13] | inhibition of DNA amplification (PCR) [14] | electrophoretic mobility of V. parahaemolyticus gDNA [15]
CC(C)C[C@@H]1NC(=O)[C@H](CCCNC(=N)N)NC(=O)[C@H](CC(C)C)NC(=O)[C@H](CCCNC(=N)N)NC(=O)[C@H](Cc2c[nH]c3ccccc23)NC(=O)[C@H](CCCNC(=N)N)NC(=O)[C@@H](N)CSSC[C@@H](C(=O)O)NC(=O)[C@H](CCCNC(=N)N)NC1=O [Analog A2] (H-CRWRLRLRC-OH; disulfide 1-9) | 3.8 | >100.0 | 24.0 | 9.9 | 14.0 | 2.0 | 13.0 | 7.6 | 20.0 | 18.0 | >125.0 | inhibited | inhibited | did not inhibit | –
N=C(N)NCCC[C@@H]1NC(=O)[C@H](CCCNC(=N)N)NC(=O)[C@H](Cc2c[nH]c3ccccc23)NC(=O)CNC(=O)[C@H](Cc2c[nH]c3ccccc23)NC(=O)[C@H](CCCNC(=N)N)NC(=O)[C@H](CCCNC(=N)N)NC(=O)[C@@H](N)CSSC[C@@H](C(N)=O)NC1=O [Analog A4] (H-CRRWGWRRC-NH2; disulfide 1-9) | 2.5 | 27.1 | 15.8 | 10.5 | – | 5.7 | 2.2 | 29.5 | – | – | 17.2 | inhibited | inhibited | partially or completely inhibited | inhibited
